A word on the pEC50: it is −log10 of the EC50, conventionally taken in molar units.

The values below come from publication PMC4057235, “Development and Evaluation of Small Peptidomimetic Ligands to Protease-Activated Receptor-2 (PAR2) through the Use of Lipid Tethering” (PLoS ONE, 2014).

pEC50: −log10 of the molar value.

Series [1] has as its target T1, PAR2 (Homo sapiens, UniProt P55085).
T1 construct: 16HBE14o- cells on E-plates in growth medium; endogenous in cells; host or cells: 16HBE14o- cells
T1 sequence (P55085 26-397): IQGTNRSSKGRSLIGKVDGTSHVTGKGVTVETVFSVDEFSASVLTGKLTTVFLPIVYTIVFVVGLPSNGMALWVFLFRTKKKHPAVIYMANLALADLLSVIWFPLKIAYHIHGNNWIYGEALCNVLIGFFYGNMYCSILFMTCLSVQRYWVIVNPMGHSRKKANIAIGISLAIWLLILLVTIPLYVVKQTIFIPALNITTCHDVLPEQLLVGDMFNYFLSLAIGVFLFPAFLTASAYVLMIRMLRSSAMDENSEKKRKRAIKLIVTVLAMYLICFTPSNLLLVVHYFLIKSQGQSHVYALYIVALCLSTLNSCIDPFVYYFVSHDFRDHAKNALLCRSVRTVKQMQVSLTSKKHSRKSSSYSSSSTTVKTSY
Nature of the series: Ca2+ desensitization assay in 16HBE14o- cells with 2at-LIGRL-NH2. The class given is cell-based. The conditions noted are these: compound at its activating concentration, ATP 5 µM. As to the method:
16HBE14o- cells or CHO cells were loaded with fura 2-acetomethoxyl ester (CalBiochem or Molecular Probes) for 30 min at room temperature. Cells were washed with HBSS and allowed to sit for at least 20 min prior to digital imaging. For activation and desensitization assay experiments using 16HBE14o- cells, [Ca^2+]i was measured as previously described. Experiments consisted of 20 sec of recording of cells in HBSS to determine resting [Ca^2+]i, followed by a 10 sec wash to introduce ligand and up to 10 min of recording for ligand washes required for desensitization experiments. Briefly, fura-2 fluorescence was observed on an Olympus IX70 microscope with a 40X oil immersion objective after alternating excitation between 340 and 380 nm by a 75 W Xenon lamp linked to a Delta Ram V illuminator (PTI) and a gel optic line. Intracellular Ca^2+ concentration ([Ca^2+]i) for each individual cell in the field of view was calculated by ratiometric analysis of fura-2 fluorescence using equations originally published in [31]. Individual ratios were calculated every sec throughout the experiments. […] Percent activation graphs are determined from 3–6 experiments for each ligand concentration. […] Ca^2+ imaging of CHO cells was similar; each ligand concentration tested included at least 3 experiments and a minimum of 200 cells analyzed during each experiment. […]

Series [2] has as its target T1, PAR2. On the set-up: method as in PMID 21467041. Particulars: 16HBE14o- cells; read-out: RTCA EC50; cited from earlier work.
For series [3], the target named is T2, MrgprC11 (Mus musculus, UniProt Q8CIP3).
T2 construct: An MrgprC11 cDNA in pcDNA3.1 vector was transfected into CHO cells; expressed in transfected cells; host or cells: CHO cells, transient transfection with Lipofectamine 2000
T2 sequence (Q8CIP3 1-322): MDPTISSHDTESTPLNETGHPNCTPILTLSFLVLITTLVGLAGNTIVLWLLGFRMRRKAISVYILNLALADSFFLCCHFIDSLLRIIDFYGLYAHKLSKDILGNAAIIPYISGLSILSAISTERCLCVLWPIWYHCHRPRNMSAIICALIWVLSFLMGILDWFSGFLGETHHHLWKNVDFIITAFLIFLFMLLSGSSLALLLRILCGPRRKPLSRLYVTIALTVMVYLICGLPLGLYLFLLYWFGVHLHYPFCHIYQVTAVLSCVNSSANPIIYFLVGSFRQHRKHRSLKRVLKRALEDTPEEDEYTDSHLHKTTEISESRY
Nature of the series: Ca2+ response in MrgprC11 transfected CHO cells. The class given is cell-based. As to the method:
CHO cells were cultured in DMEM supplemented with 10% FBS and 1% penicillin and streptomycin at 37°C in a 5% CO2 atmosphere. One day before transfection, CHO cells were plated in a 60 mm cell culture dish at a concentration of 1×10^5 cells/cm^2 and grown without antibiotics. An MrgprC11 cDNA in pcDNA3.1 vector was transfected into CHO cells using Lipofectamine™ 2000 (Invitrogen) prior to transfer to coverslips for experiments. Coverslips were coated with 0.1 mg/ml poly-D-lysine (from 2 mg/ml stock) and incubated for 1 hr at room temperature, after which the coating solution was removed and the coverslips were washed twice with double distilled water. CHO cells were seeded on coverslips at a concentration of 1×10^5 cells/cm^2 6 hr after transfection. Transfected cells were incubated for 24 hr prior to Ca^2+ imaging.
16HBE14o- cells or CHO cells were loaded with fura 2-acetomethoxyl ester (CalBiochem or Molecular Probes) for 30 min at room temperature. Cells were washed with HBSS and allowed to sit for at least 20 min prior to digital imaging. For activation and desensitization assay experiments using 16HBE14o- cells, [Ca^2+]i was measured as previously described. Experiments consisted of 20 sec of recording of cells in HBSS to determine resting [Ca^2+]i, followed by a 10 sec wash to introduce ligand and up to 10 min of recording for ligand washes required for desensitization experiments. Briefly, fura-2 fluorescence was observed on an Olympus IX70 microscope with a 40X oil immersion objective after alternating excitation between 340 and 380 nm by a 75 W Xenon lamp linked to a Delta Ram V illuminator (PTI) and a gel optic line. Intracellular Ca^2+ concentration ([Ca^2+]i) for each individual cell in the field of view was calculated by ratiometric analysis of fura-2 fluorescence using equations originally published in [31]. Individual ratios were calculated every sec throughout the experiments. [Ca^2+]i traces over time are averaged [Ca^2+]i of all cells within a field of view (80–120) and are representative of at least 3 experiments. Cells were considered activated by the ligand if their resting [Ca^2+]i was increased above a 200 nM threshold, a 2–4 fold increase above typical resting values. Percent activation graphs are determined from 3–6 experiments for each ligand concentration. Time to threshold in individual cells represent between 200–400 cells from at least 3 experiments at each ligand concentration. Ca^2+ imaging of CHO cells was similar; each ligand concentration tested included at least 3 experiments and a minimum of 200 cells analyzed during each experiment.

Series [4] has as its target T2, MrgprC11. On the set-up: method as in PMID 21775281. The conditions noted are these: cited from earlier work.
On the set-up of series [5]: method as in PMID 20873792. The conditions noted are these: at high concentrations (100 µM); cited from earlier work.

As for `Nc1ncnc2c1ncn2[C@@H]1O[C@H](COP(=O)(O)OP(=O)(O)OP(=O)(O)O)[C@@H](O)[C@H]1O` [ATP], the “Ca2+ response after PAR2 desensitization with 50 µM 2at-LIGRL-NH2” value in series [1] is listed as “remained an effective agonist”. Consider 6-aminonicotinyl-LIGRL-NH2, for which the pEC50 in series [2] was 6.37. For the compound 2at-LIGRL-NH2 [reference compound], the “Ca2+ response (% of cells)” value in series [3] (1 µM) is “no response”; in series [3] (10 µM), 10%. The “Ca2+ response after PAR2 desensitization with 50 µM 2at-LIGRL-NH2” value in series [1] is “did not result in an increase of [Ca^2+]i”. Further, the negative-log EC50 (pEC50) in series [2] is 6.51.

With SLIGRL-NH2 (H-SLIGRL-NH2), the pEC50 in series [4] (read-out: MrgprC11 activation EC50) was 5.00. Take SLIGR-NH2: the MrgprC11 signaling entry in series [4] is reported as “lost MrgprC11 signaling capacity”. As for `CCC(C)C(NC(=O)C(CC1CCCCC1)NC(=O)c1ccno1)C(N)=O` (stereo not drawn) [Compound 5io-Cha-I-NH2], the solubility entry in series [5] is recorded as “lack of solubility”.
